# Marks after values point to notes of the source that are not given here.
# How the values were obtained:
# healthy participants [1] = experiment: Auditory oddball ERP task; type: in vivo, human; settings: for Auditory oddball P300 amplitude, targets vs standards, effect size d: post-dose session; for Mean amplitude over the parietal cortex, Auditory Oddball, Standard trials / Mean amplitude over the parietal cortex, Auditory Oddball, Target trials: mean (SD)
# Description: (§1) Following the cognitive battery, an electrophysiology recording was set up. Visual and auditory ERPs were recorded using a 128-channel Geodesic sensor net (EGI, Inc., Eugene, OR; [37, 38]). The electrophysiological recording was sampled at 250 Hz with filters set at 0.1–100 Hz. During data collection, all electrodes were referenced to vertex (Cz). The recording session lasted approximately 30 min.
# (§2) Auditory and visual oddball tasks were performed to assess attention in auditory and visual modalities. In the auditory task, a pair of two pure tones (single formant) at 1000 and 1500 Hz were the stimuli. In the visual task, the stimuli were a pair of letters (X & O). The assignment of stimuli to standard and target conditions (70% & 30% of the trials respectively), was counterbalanced across participants. Each participant was asked to press a different button using their preferred hand upon presentation of the standard and the target stimulus. On average, auditory and visual tasks lasted 6–7 min each.
# (§3) ERP processing and Analysis: Single-trial ERPs were derived by extracting a 100-ms pre-stimulus baseline and a 900 ms post-stimulus interval. The trials were screened for ocular and motor artifacts using automated procedures with standard threshold settings (NetStation 4.4, EGI, Inc) and verified using manual review. Data for electrodes characterized by consistent artifacts were replaced using the spherical spline interpolation algorithm. If more than 15 electrodes within a trial were noisy, the entire trial was discarded. Remaining artifact-free trials were averaged separately for each condition (standard vs. oddball; novel vs. repeated images), re-referenced to an average reference, and baseline corrected. For individual participant’s data to be included in the analysis, each condition average had to have a minimum of 10 artifact-free trials.
# (§4) Statistical analysis focused on a priori selected electrode clusters corresponding to frontal, central, and parietal midline locations (Fz, Cz, Pz in 10–20 notation), confirmed using spatial principal components analysis. Mean amplitudes were calculated within 250–400 ms (frontal P3a), 300–500 ms (parietal P300), and 500–800 ms (parietal P600) temporal windows. These a-priori selected windows were confirmed using temporal principal components analysis.
# (§5) Analyses for the auditory and visual oddball ERPs focused on the parietal (P300) and frontal (P3a) responses to standard and target stimuli. Differences in the amplitude, latency, and scalp topography of the responses were examined. […] For the incidental memory paradigm, differences in the mean amplitude of the parietal P300/P600 responses to repeated vs. novel presentations. The amplitude of the parietal P300/P600 waveform measures stimulus recognition. A larger positive amplitude for repeated compared to novel images indicates spontaneous formation of a memory trace.
# (§6) Auditory and visual oddball tasks were performed to assess attention in auditory and visual modalities (Comerchero & Polich, 1999; Polich, 2007). In the auditory task, a pair of two pure tones (single formant) at 1000 and 1500 Hz were the stimuli. Tones were equated in duration (300 ms) and rise/decay times. Tones were presented at 75 dB SPL (measured at the ear) through a speaker positioned 1 meter in front of the participant. In the visual task, the stimuli were a pair of letters (X & O). All stimuli were presented in random order for 500 ms in the center of a computer monitor positioned 1 meter in front of the participant. For both auditory and visual tasks, 200 trials were presented with the inter-stimulus interval varying randomly between 1000-1300 ms to prevent habituation to stimulus onset. The assignment of stimuli to standard and target conditions (70% & 30% of the trials respectively), was counterbalanced across participants. […]
# healthy participants [2] = experiment: Visual oddball ERP task; type: in vivo, human; settings: for Mean amplitude over the parietal cortex, Visual Oddball, Standard trials / Mean amplitude over the parietal cortex, Visual Oddball, Target trials: mean (SD)
# Description: as §1, §2, §3, §4, §5, §6
# [3] = VU319 120 mg, fasting, post-drug session, n = 9
# [4] = VU319 120 mg, fasting, pre-drug session, n = 9
# [5] = VU319 120 mg, fed, post-drug session, n = 9
# [6] = VU319 120 mg, fed, pre-drug session, n = 9
# [7] = SAD study, 120mg, Post-Drug, n = 5
# [8] = SAD study, 120mg, Pre-Drug, n = 5
# [9] = SAD study, 240mg, Post-Drug, n = 5
structure (smiles),measurement,setting,value
Cn1cc2c(-c3cc(F)c(CN4Cc5ncccc5C4=O)c(F)c3)cccc2n1 [VU319],"Auditory oddball parietal amplitude, target vs standard, post- vs pre-dose, effect size d","healthy participants [1]; 60 mg, p = 0.002",1.32
same,"Auditory oddball parietal amplitude, target vs standard, post- vs pre-dose, effect size d","healthy participants [1]; 120 mg, SAD, p = 0.18",0.64
same,"Auditory oddball P300 amplitude, targets vs standards, effect size d","healthy participants [1]; 120 mg, fasted, p = 0.033",0.8
same,"Auditory oddball P300 amplitude, targets vs standards, effect size d","healthy participants [1]; 120 mg, fed, p = 0.25",0.85
same,"Mean amplitude over the parietal cortex, Auditory Oddball, Standard trials","healthy participants [1]; SAD study, 60 mg, Post-Drug",1.31 (1.02) µV
same,"Mean amplitude over the parietal cortex, Auditory Oddball, Target trials","healthy participants [1]; SAD study, 60 mg, Post-Drug",3.69 (1.83) µV
same,"Mean amplitude over the parietal cortex, Auditory Oddball, Standard trials","healthy participants [1]; SAD study, 60 mg, Pre-Drug",1.23 (0.96) µV
same,"Mean amplitude over the parietal cortex, Auditory Oddball, Target trials","healthy participants [1]; SAD study, 60 mg, Pre-Drug",2.0 (1.32) µV
same,"Mean amplitude over the parietal cortex, Auditory Oddball, Standard trials","healthy participants [1]; SAD study, 120 mg, Post-Drug",0.85 (1.41) µV
same,"Mean amplitude over the parietal cortex, Auditory Oddball, Target trials","healthy participants [1]; SAD study, 120 mg, Post-Drug",3.18 (1.24) µV
same,"Mean amplitude over the parietal cortex, Auditory Oddball, Standard trials","healthy participants [1]; SAD study, 120 mg, Pre-Drug",1.83 (1.04) µV
same,"Mean amplitude over the parietal cortex, Auditory Oddball, Target trials","healthy participants [1]; SAD study, 120 mg, Pre-Drug",3.23 (1.85) µV
same,"Mean amplitude over the parietal cortex, Auditory Oddball, Standard trials","healthy participants [1]; SAD study, 240 mg, Post-Drug",1.04 (1.54) µV
same,"Mean amplitude over the parietal cortex, Auditory Oddball, Target trials","healthy participants [1]; SAD study, 240 mg, Post-Drug",2.42 (1.53) µV
same,"Mean amplitude over the parietal cortex, Auditory Oddball, Standard trials","healthy participants [1]; SAD study, 240 mg, Pre-Drug",1.34 (1.02) µV
same,"Mean amplitude over the parietal cortex, Auditory Oddball, Target trials","healthy participants [1]; SAD study, 240 mg, Pre-Drug",2.94 (1.57) µV
same,"Mean amplitude over the parietal cortex, Auditory Oddball, Standard trials","healthy participants [1]; SAD study, 400 mg, Post-Drug",0.48 (0.92) µV
same,"Mean amplitude over the parietal cortex, Auditory Oddball, Target trials","healthy participants [1]; SAD study, 400 mg, Post-Drug",2.12 (0.34) µV
same,"Mean amplitude over the parietal cortex, Auditory Oddball, Standard trials","healthy participants [1]; SAD study, 400 mg, Pre-Drug",0.66 (1.09) µV
same,"Mean amplitude over the parietal cortex, Auditory Oddball, Target trials","healthy participants [1]; SAD study, 400 mg, Pre-Drug",1.7 (0.67) µV
same,"Mean amplitude over the parietal cortex, Auditory Oddball, Standard trials","healthy participants [1]; SAD study, 600 mg, Post-Drug",1.84 (1.22) µV
same,"Mean amplitude over the parietal cortex, Auditory Oddball, Target trials","healthy participants [1]; SAD study, 600 mg, Post-Drug",4.31 (2.13) µV
same,"Mean amplitude over the parietal cortex, Auditory Oddball, Standard trials","healthy participants [1]; SAD study, 600 mg, Pre-Drug",0.74 (1.24) µV
same,"Mean amplitude over the parietal cortex, Auditory Oddball, Target trials","healthy participants [1]; SAD study, 600 mg, Pre-Drug",3.08 (2.61) µV
same,"Mean amplitude over the parietal cortex, Auditory Oddball, Standard trials",healthy participants [1]; [3],1.17 (1.66) µV
same,"Mean amplitude over the parietal cortex, Auditory Oddball, Target trials",healthy participants [1]; [3],2.56 (2.38) µV
same,"Mean amplitude over the parietal cortex, Auditory Oddball, Standard trials",healthy participants [1]; [4],1.09 (1.78) µV
same,"Mean amplitude over the parietal cortex, Auditory Oddball, Target trials",healthy participants [1]; [4],2.11 (2.11) µV
same,"Mean amplitude over the parietal cortex, Auditory Oddball, Standard trials",healthy participants [1]; [5],-0.07 (0.96) µV
same,"Mean amplitude over the parietal cortex, Auditory Oddball, Target trials",healthy participants [1]; [5],0.8 (1.11) µV
same,"Mean amplitude over the parietal cortex, Auditory Oddball, Standard trials",healthy participants [1]; [6],0.51 (1.65) µV
same,"Mean amplitude over the parietal cortex, Auditory Oddball, Target trials",healthy participants [1]; [6],2.32 (1.46) µV
same,"Visual oddball P300 amplitude, targets vs standards","healthy participants [2]; 120 mg, fasted condition",no difference
same,"Visual oddball P300 amplitude, targets vs standards, effect size d","healthy participants [2]; 120 mg, fed, post-dose session, p = 0.061",0.73
same,"Visual oddball P300 amplitude, targets vs standards, effect size d","healthy participants [2]; 120 mg, fed, pre-dose session, p = 0.039",0.82
same,"Visual oddball parietal amplitude, target vs standard, post- vs pre-dose, effect size d","healthy participants [2]; 400 mg, p = 0.05",1.28
same,"Visual oddball parietal amplitude, target vs standard, post- vs pre-dose effect","healthy participants [2]; 600 mg, t < 1",not found
same,"Mean amplitude over the parietal cortex, Visual Oddball, Standard trials","healthy participants [2]; SAD study, 60 mg, Post-Drug",-0.66 (1.57) µV
same,"Mean amplitude over the parietal cortex, Visual Oddball, Target trials","healthy participants [2]; SAD study, 60 mg, Post-Drug",1.36 (0.91) µV
same,"Mean amplitude over the parietal cortex, Visual Oddball, Standard trials","healthy participants [2]; SAD study, 60 mg, Pre-Drug",-0.13 (1.23) µV
same,"Mean amplitude over the parietal cortex, Visual Oddball, Target trials","healthy participants [2]; SAD study, 60 mg, Pre-Drug",1.19 (1.9) µV
same,"Mean amplitude over the parietal cortex, Visual Oddball, Standard trials",healthy participants [2]; [7],0.01 (1.05)^# µV
same,"Mean amplitude over the parietal cortex, Visual Oddball, Target trials",healthy participants [2]; [7],1.5 (1.26)^# µV
same,"Mean amplitude over the parietal cortex, Visual Oddball, Standard trials",healthy participants [2]; [8],0.99 (1.12)^# µV
same,"Mean amplitude over the parietal cortex, Visual Oddball, Target trials",healthy participants [2]; [8],2.71 (1.58)^# µV
same,"Mean amplitude over the parietal cortex, Visual Oddball, Standard trials",healthy participants [2]; [9],1.02 (1.44)^# µV
same,"Mean amplitude over the parietal cortex, Visual Oddball, Target trials",healthy participants [2]; [9],2.2 (2.28)^# µV
same,"Mean amplitude over the parietal cortex, Visual Oddball, Standard trials","healthy participants [2]; SAD study, 240 mg, Pre-Drug",0.32 (1.04) µV
same,"Mean amplitude over the parietal cortex, Visual Oddball, Target trials","healthy participants [2]; SAD study, 240 mg, Pre-Drug",1.93 (1.88) µV
same,"Mean amplitude over the parietal cortex, Visual Oddball, Standard trials","healthy participants [2]; SAD study, 400 mg, Post-Drug",1.48 (0.73) µV
same,"Mean amplitude over the parietal cortex, Visual Oddball, Target trials","healthy participants [2]; SAD study, 400 mg, Post-Drug",2.7 (1.92) µV
same,"Mean amplitude over the parietal cortex, Visual Oddball, Standard trials","healthy participants [2]; SAD study, 400 mg, Pre-Drug",1.04 (1.03) µV
same,"Mean amplitude over the parietal cortex, Visual Oddball, Target trials","healthy participants [2]; SAD study, 400 mg, Pre-Drug",1.75 (1.5) µV
same,"Mean amplitude over the parietal cortex, Visual Oddball, Standard trials","healthy participants [2]; SAD study, 600 mg, Post-Drug",1.47 (1.1) µV
same,"Mean amplitude over the parietal cortex, Visual Oddball, Target trials","healthy participants [2]; SAD study, 600 mg, Post-Drug",3.1 (2.23) µV
same,"Mean amplitude over the parietal cortex, Visual Oddball, Standard trials","healthy participants [2]; SAD study, 600 mg, Pre-Drug",1.46 (2.51) µV
same,"Mean amplitude over the parietal cortex, Visual Oddball, Target trials","healthy participants [2]; SAD study, 600 mg, Pre-Drug",3.46 (2.31) µV
same,"Mean amplitude over the parietal cortex, Visual Oddball, Standard trials",healthy participants [2]; [3],-0.16 (1.73) µV
same,"Mean amplitude over the parietal cortex, Visual Oddball, Target trials",healthy participants [2]; [3],0.72 (3.1) µV
same,"Mean amplitude over the parietal cortex, Visual Oddball, Standard trials",healthy participants [2]; [4],-0.16 (1.28) µV
same,"Mean amplitude over the parietal cortex, Visual Oddball, Target trials",healthy participants [2]; [4],0.71 (1.6) µV
same,"Mean amplitude over the parietal cortex, Visual Oddball, Standard trials",healthy participants [2]; [5],0.25 (0.62) µV
same,"Mean amplitude over the parietal cortex, Visual Oddball, Standard trials",healthy participants [2]; [6],-0.29 (1.17) µV
same,"Mean amplitude over the parietal cortex, Visual Oddball, Target trials",healthy participants [2]; [6],0.91 (1.49) µV

# — PMC12211128, “Safety, tolerability, pharmacokinetic and pharmacodynamic effects of the muscarinic M1 positive allosteric modulator VU0467319 for Alzheimer’s disease: a single ascending-dose study in healthy participants” (Alzheimer's Research & Therapy, 2025)
